Source: US20100267561A1, “HERBICIDAL PYRIDAZINONE DERIVATIVES” (priority 2007, published 2010)

Assays:
Assay type in all cases: in vivo
[1] = tested on: umbrella sedge (Cyperus difformis); experiment: Test B flooded paddy test plant response
Summary of the method: (§1)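 2-leaf plants; pots flooded 3 cm above soil; compound added to paddy water; depth maintained. Greenhouse 13–15 d. Visual rating vs controls, 0 (no effect) to 100 (complete control); dash = no result.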

[2] = tested on: barnyardgrass (Echinochloa crus-galli); experiment: Test B flooded paddy test plant response
Summary of the method: as §1

rice (Oryza sativa) = experiment: Test B flooded paddy test plant response
Summary of the method: as §1

[3] = tested on: ducksalad (Heteranthera limosa); experiment: Test B flooded paddy test plant response
Summary of the method: as §1

[4] = tested on: large crabgrass (Digitaria sanguinalis); experiment: Test A pre-/postemergence plant response
Summary of the method: (§2)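 Seeds sown in loam–sand blend; test chemicals in non-phytotoxic solvent with surfactant applied preemergence as directed soil spray and, concurrently, postemergence to plants 2–10 cm tall at one- to two-leaf stage. Greenhouse ~10 days, then visual injury rating vs untreated controls on 0–100 scale (0 = no effect, 100 = complete control).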

[5] = tested on: barnyardgrass (Echinochloa crus-galli); experiment: Test A pre-/postemergence plant response
Summary of the method: as §2

[6] = tested on: pigweed (Amaranthus retroflexus); experiment: Test A pre-/postemergence plant response
Summary of the method: as §2

[7] = tested on: morningglory (Ipomoea coccinea); experiment: Test A pre-/postemergence plant response
Summary of the method: as §2

corn (Zea mays) = experiment: Test A pre-/postemergence plant response
Summary of the method: as §2

[8] = tested on: giant foxtail (Setaria faberi); experiment: Test A pre-/postemergence plant response
Summary of the method: as §2

[9] = tested on: velvetleaf (Abutilon theophrasti); experiment: Test A pre-/postemergence plant response
Summary of the method: as §2

[10] = tested on: wheat (Triticum aestivum); experiment: Test A pre-/postemergence plant response
Summary of the method: as §2

[11] = tested on: canarygrass (Phalaris minor); experiment: Test B postemergence plant response; conditions: Postemergence
Summary of the method: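 Test compounds were applied postemergence to plants 2 to 18 cm tall (1- to 4-leaf stage). After 13 to 15 days in a greenhouse, each species was visually compared with untreated controls and rated 0 (no effect) to 100 (complete control).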

[12] = Flood (flooded paddy test), 62 g ai/ha, scale 0 to 100, 0 no effect, 100 complete control
[13] = Flood (flooded paddy test), 125 g ai/ha, scale 0 to 100, 0 no effect, 100 complete control
[14] = Flood (flooded paddy test), 250 g ai/ha, scale 0 to 100, 0 no effect, 100 complete control
[15] = Flood, 31 g ai/ha, scale 0 to 100
[16] = Postemergence, 125 g ai/ha, 0 to 100 scale, 0 no effect, 100 complete control
[17] = Postemergence, 500 g ai/ha, 0 to 100 scale, 0 no effect, 100 complete control
[18] = Preemergence, 125 g ai/ha, 0 to 100 scale (0 no effect, 100 complete control)
[19] = Preemergence, 500 g ai/ha, 0 to 100 scale (0 no effect, 100 complete control)

Structure (SMILES): Cc1nn(C)c(=O)c(-n2nc(-c3ccc(Cl)cc3)cc2C)c1O [Compound 15]
- Plant response rating, Sedge, Umbrella [1, 12]: 50
- Plant response rating, Sedge, Umbrella [1, 13]: 60
- Plant response rating, Sedge, Umbrella [1, 14]: 70
- Plant response rating, Sedge, Umbrella [1, 15]: 0
- Plant response rating, Barnyardgrass [2, 12]: 15
- Plant response rating, Barnyardgrass [2, 13]: 40
- Plant response rating, Barnyardgrass [2, 14]: 60
- Plant response rating, Barnyardgrass [2, 15]: 0
- Plant response rating, Rice (rice (Oryza sativa); [12]): 0
- Plant response rating, Rice (rice (Oryza sativa); [13]): 15
- Plant response rating, Rice (rice (Oryza sativa); [14]): 70
- Plant response rating, Rice (rice (Oryza sativa); [15]): 0
- Plant response rating, Ducksalad [3, 12]: 0
- Plant response rating, Ducksalad [3, 13]: 80
- Plant response rating, Ducksalad [3, 14]: 100
- Plant response rating, Ducksalad [3, 15]: 0
- Plant response rating, Crabgrass, Large [4, 16]: 90
- Plant response rating, Crabgrass, Large [4, 17]: 100
- Plant response rating, Crabgrass, Large [4, 18]: 80
- Plant response rating, Crabgrass, Large [4, 19]: 100
- Plant response rating, Barnyardgrass [5, 16]: 100
- Plant response rating, Barnyardgrass [5, 17]: 100
- Plant response rating, Barnyardgrass [5, 18]: 100
- Plant response rating, Barnyardgrass [5, 19]: 100
- Plant response rating, Pigweed [6, 16]: 0
- Plant response rating, Pigweed [6, 17]: 0
- Plant response rating, Pigweed [6, 18]: 0
- Plant response rating, Pigweed [6, 19]: 0
- Plant response rating, Morningglory [7, 16]: 0
- Plant response rating, Morningglory [7, 17]: 0
- Plant response rating, Morningglory [7, 18]: 0
- Plant response rating, Morningglory [7, 19]: 0
- Plant response rating, Corn (corn (Zea mays); [16]): 70
- Plant response rating, Corn (corn (Zea mays); [17]): 90
- Plant response rating, Corn (corn (Zea mays); [18]): 50
- Plant response rating, Corn (corn (Zea mays); [19]): 90
- Plant response rating, Foxtail, Giant [8, 16]: 90
- Plant response rating, Foxtail, Giant [8, 17]: 100
- Plant response rating, Foxtail, Giant [8, 18]: 90
- Plant response rating, Foxtail, Giant [8, 19]: 100
- Plant response rating, Velvetleaf [9, 16]: 0
- Plant response rating, Velvetleaf [9, 17]: 0
- Plant response rating, Velvetleaf [9, 18]: 0
- Plant response rating, Velvetleaf [9, 19]: 0
- Plant response rating, Wheat [10, 16]: 50
- Plant response rating, Wheat [10, 17]: 60
- Plant response rating, Wheat [10, 18]: 60
- Plant response rating, Wheat [10, 19]: 80
- Plant response rating, Canarygrass ([11]; 31 g ai/ha, scale 0 to 100, 0 no effect, 100 complete control): 35
- Plant response rating, Canarygrass ([11]; 62 g ai/ha, scale 0 to 100): 35
- Plant response rating, Canarygrass ([11]; 125 g ai/ha, scale 0 to 100): 85
